# Read-outs that look alike come from different tables or passages of the source.
# How the values were obtained:
# [1] = molecular target: T1, NNMT (Mus musculus, UniProt O55239); conditions: read-out: IC50 (NNMT inhibition); biochemical assay; cited from earlier work
# T1 sequence (O55239 1-264): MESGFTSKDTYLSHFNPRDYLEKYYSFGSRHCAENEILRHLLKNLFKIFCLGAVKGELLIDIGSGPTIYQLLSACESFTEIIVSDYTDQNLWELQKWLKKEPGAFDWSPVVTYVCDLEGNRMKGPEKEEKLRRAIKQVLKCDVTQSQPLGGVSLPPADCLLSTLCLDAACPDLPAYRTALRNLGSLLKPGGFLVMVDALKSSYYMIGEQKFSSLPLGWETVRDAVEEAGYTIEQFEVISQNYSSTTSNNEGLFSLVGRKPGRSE
# [2] = PAMPA; for Flux: 4 h, 400 µM
# [3] = molecular target: T1, NNMT; experiment: Intracellular NNMT reaction product 1-MNA in cultured 3T3-L1 cells; conditions: 24 h; for 1-MNA levels in adipocytes relative to control: 10 µM; for Intracellular levels of 1-MNA vs untreated controls: 30 µM
# [4] = molecular target: recombinant human PRMT3 (Homo sapiens, UniProt O60678); experiment: PRMT3 radiometric activity assay; format: biochemical; conditions: for Inhibition of PRMT3: 10 nM to 200 µM (1,8-diMQ) or 600 µM (5-amino-1MQ)
# Chain of recombinant human PRMT3 (O60678 whole entry): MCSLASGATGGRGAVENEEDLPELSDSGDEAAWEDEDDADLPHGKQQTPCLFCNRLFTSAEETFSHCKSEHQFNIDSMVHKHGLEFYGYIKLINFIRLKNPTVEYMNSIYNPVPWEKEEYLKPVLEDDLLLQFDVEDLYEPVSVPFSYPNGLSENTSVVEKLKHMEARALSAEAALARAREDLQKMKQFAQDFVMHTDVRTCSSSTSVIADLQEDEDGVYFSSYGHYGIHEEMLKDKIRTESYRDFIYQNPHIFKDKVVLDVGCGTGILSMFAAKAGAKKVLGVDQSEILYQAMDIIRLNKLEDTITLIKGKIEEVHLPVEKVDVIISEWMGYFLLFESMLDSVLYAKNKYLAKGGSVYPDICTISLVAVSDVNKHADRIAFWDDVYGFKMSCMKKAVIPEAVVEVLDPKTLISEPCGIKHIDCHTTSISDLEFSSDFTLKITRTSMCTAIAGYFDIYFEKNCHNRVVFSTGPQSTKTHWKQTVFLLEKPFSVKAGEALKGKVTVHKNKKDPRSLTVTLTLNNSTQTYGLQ
# [5] = molecular target: T2, recombinant human COMT (Homo sapiens, UniProt P21964); experiment: COMT radiometric activity assay; format: biochemical
# T2 sequence (P21964 1-271): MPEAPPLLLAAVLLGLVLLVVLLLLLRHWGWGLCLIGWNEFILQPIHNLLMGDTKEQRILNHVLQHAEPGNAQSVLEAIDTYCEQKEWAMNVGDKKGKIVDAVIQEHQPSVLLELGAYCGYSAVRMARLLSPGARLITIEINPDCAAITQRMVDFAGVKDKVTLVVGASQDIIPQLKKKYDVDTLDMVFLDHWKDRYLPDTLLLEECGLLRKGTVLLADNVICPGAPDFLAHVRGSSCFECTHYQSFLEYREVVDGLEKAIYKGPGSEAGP
# [6] = molecular target: recombinant human DNMT1 (Homo sapiens, UniProt P26358); experiment: DNMT1 radiometric activity assay; format: biochemical; conditions: for Inhibition of DNMT1: 10 nM to 200 µM (1,8-diMQ) or 600 µM (5-amino-1MQ); for IC50: read-out: IC50, DNA (cytosine-5)-methyltransferase 1, NI: no inhibition, NC: not calculable
# Chain of recombinant human DNMT1 (P26358 whole entry): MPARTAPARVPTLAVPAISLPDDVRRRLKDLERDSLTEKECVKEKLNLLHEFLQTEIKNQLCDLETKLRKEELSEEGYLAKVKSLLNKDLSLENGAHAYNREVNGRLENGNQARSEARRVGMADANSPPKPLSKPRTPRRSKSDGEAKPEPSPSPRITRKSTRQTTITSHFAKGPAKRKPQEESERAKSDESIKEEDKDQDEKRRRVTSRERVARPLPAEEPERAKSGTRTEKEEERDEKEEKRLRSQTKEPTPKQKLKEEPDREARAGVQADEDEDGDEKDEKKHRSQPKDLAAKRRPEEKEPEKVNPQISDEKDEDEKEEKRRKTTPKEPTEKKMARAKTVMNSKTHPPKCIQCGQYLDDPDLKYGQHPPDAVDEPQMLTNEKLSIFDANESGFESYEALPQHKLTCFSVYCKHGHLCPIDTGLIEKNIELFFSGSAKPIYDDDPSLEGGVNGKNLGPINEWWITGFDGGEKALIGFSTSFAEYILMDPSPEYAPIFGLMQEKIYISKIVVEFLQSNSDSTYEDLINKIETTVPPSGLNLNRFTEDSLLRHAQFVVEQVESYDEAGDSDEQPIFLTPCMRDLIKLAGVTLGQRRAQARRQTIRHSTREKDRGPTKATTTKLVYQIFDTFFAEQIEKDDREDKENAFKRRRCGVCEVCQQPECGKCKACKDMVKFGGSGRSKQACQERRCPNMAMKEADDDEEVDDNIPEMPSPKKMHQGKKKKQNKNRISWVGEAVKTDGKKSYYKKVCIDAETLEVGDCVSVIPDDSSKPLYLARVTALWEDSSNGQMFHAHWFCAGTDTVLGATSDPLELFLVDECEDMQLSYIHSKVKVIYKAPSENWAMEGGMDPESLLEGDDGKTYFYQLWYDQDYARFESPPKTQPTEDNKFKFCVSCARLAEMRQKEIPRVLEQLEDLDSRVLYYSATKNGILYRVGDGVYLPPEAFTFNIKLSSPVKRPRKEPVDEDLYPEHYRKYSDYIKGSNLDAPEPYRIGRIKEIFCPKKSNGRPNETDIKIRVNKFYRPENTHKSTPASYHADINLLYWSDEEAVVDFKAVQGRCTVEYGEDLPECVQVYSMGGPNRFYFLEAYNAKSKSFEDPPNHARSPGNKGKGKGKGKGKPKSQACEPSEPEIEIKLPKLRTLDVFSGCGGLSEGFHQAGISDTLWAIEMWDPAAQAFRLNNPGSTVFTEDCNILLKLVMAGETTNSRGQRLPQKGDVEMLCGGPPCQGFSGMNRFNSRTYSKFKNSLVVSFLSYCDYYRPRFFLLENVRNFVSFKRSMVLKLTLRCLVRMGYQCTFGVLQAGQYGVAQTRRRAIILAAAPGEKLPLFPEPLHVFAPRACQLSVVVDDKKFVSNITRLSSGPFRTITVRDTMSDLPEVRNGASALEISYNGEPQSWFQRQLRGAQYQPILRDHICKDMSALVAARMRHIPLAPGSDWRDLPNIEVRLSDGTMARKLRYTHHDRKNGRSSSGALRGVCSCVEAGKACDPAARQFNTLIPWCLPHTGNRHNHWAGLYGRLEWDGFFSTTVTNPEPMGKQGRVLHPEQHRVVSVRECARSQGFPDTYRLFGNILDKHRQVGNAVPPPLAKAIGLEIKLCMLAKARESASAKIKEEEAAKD
# [7] = Parallel artificial membrane permeability assay; conditions: for Flux: PAMPA passive transport, 400 µM donor in PBS, 4 h, room temperature; for Permeability Classification: PAMPA, BCS, Biopharmaceutics Classification System
# [8] = test system: Caco-2 cells; experiment: Bi-directional permeability assay with Caco-2 cells
# [9] = test system: Caco-2 cells; conditions: for Classification (Caco-2 permeability/efflux) / Efflux Ratio (Re): Caco-2; for Mean A➔B Papp / Mean B➔A Papp: Caco-2, pH 7.4
# [10] = test system: 3T3-L1 pre-adipocytes; experiment: MTT cell viability assay; format: cell-based; conditions: highest tested concentration (0.1 – 60 µM range, Figure 6C)
# [11] = test system: DIO C57Bl/6 mice; experiment: Efficacy in diet-induced obese; format: in vivo
# [12] = molecular target: T3, recombinant human SIRT-1 (Homo sapiens, UniProt Q96EB6); experiment: SIRT-1 fluorometric activity assay; format: biochemical
# T3 sequence (Q96EB6 1-747): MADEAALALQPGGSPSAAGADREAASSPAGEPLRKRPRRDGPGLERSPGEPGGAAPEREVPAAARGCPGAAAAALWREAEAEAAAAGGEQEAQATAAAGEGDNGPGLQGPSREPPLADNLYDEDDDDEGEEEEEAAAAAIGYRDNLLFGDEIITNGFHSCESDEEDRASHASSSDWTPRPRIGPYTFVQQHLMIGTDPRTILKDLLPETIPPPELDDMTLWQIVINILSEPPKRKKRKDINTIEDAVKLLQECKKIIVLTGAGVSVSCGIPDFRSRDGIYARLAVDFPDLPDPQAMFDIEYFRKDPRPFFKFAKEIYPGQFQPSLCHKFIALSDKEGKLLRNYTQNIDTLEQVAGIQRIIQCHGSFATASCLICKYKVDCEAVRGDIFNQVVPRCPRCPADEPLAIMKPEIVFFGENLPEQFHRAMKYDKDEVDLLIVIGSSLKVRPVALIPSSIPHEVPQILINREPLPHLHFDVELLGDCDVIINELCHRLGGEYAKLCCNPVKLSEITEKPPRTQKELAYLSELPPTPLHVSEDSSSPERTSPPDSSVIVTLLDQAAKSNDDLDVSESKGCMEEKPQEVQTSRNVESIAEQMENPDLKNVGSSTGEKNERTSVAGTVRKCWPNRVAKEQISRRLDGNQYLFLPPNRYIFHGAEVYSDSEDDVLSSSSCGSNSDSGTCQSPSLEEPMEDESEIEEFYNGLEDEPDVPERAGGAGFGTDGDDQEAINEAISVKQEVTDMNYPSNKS
# [13] = test system: differentiated 3T3-L1 adipocytes; experiment: Intracellular metabolites; conditions: 24 h
# [14] = molecular target: recombinant human NAMPT (Homo sapiens, UniProt P43490); experiment: NAMPT fluorometric activity assay; format: biochemical
# Chain of recombinant human NAMPT (P43490 whole entry): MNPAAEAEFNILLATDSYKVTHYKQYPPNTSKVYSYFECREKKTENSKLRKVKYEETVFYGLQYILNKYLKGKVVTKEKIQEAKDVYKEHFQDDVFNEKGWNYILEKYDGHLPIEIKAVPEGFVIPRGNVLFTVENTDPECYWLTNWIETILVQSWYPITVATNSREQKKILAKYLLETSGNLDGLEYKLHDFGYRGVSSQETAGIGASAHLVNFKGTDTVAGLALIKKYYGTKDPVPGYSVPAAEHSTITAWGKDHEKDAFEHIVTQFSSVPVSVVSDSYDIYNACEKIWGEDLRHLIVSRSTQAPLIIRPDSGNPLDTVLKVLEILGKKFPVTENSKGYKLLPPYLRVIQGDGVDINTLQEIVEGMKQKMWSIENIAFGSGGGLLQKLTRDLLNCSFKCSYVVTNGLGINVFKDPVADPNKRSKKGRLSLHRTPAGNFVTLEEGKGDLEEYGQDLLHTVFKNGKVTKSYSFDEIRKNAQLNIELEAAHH
# [15] = test system: 3T3-L1 cells; experiment: Adipocyte differentiation / lipogenesis by oil red O staining; format: cell-based; conditions: differentiating 3T3-L1 cells
# [16] = DIO mice, 20 mg/kg SC three times daily, 11 days
smiles,measurement,setting,value
"Cc1cc(C)[n+](C)c2c(C)cccc12 [1,2,4,8-tetraMQ]",IC50,[1],109000 nM
same,Permeability Classification,[2],Low permeability
same,Flux,[2],6.982e-07 cm/s
same,1-MNA levels in adipocytes relative to control,[3]; differentiated adipocytes,did not significantly decrease
"Cc1cccc2ccc[n+](C)c12 [1,8-diMQ]",IC50,[1],1800 nM
same,Inhibition of PRMT3,[4],did not inhibit
same,Inhibition of COMT,[5]; maximal tested concentration 200 µM,20%
same,Inhibition of DNMT1,[6],did not inhibit
same,IC50,[6],> 200000 nM
same,Flux,[7],8.637e-07 cm/s
same,Permeability Classification,[7],Low permeability
same,Mean B➔A Papp,"[8]; Caco-2, 10 µM, 2 h, pH 7.4",1.78 10^−6 cm/s
same,Mean A➔B Papp,"[8]; Caco-2, 10 µM, 2 h, pH 7.4, BLQ: no peak detected in receiver side sample",BLQ
same,Classification (Caco-2 permeability/efflux),[8]; Caco-2 assay,Low permeability
"C[n+]1cccc(C(N)=O)c1 [1-MNA, 1-methylnicotinamide, reference compound]",Flux,[7],0 cm/s
same,Permeability Classification,[7],No permeability
"C[n+]1cccc2ccccc21 [1-MQ, 1-methylquinolinium]",IC50,[1],12100 nM
same,Permeability Classification,[2],No permeability
"C[n+]1c(N)c(N)cc2ccccc21 [2,3-diamine-1MQ]",IC50,[1],2800 nM
same,Permeability Classification,[2],High permeability
same,Flux,[2],3.898e-06 cm/s
same,Classification (Caco-2 permeability/efflux),[9],Moderate permeability (moderate efflux)
same,Efflux Ratio (Re),[9],4.03
same,Mean A➔B Papp,[9],5.27 10^−6 cm/s
same,Mean B➔A Papp,[9],21.2 10^−6 cm/s
C[n+]1cc(N)cc2cc(F)ccc21 [3-amino-6-fluoro-1MQ],IC50,[1],1200 nM
same,Permeability Classification,[2],Moderate permeability
same,Flux,[2],1.078e-06 cm/s
same,1-MNA levels in adipocytes relative to control,[3]; differentiated adipocytes,significantly decreased
"C[n+]1cccc2c(N)cccc21 [5-amino-1MQ, 5-amino-1-methylquinolinium]",IC50,[1],1200 nM
same,Inhibition of PRMT3,[4],did not inhibit
same,Inhibition of COMT,[5]; maximal tested concentration 600 µM,10%
same,Inhibition of DNMT1,[6],did not inhibit
same,IC50,[6],> 200000 nM
same,Permeability Classification,[2],High permeability
same,Flux,[2],3.015e-06 cm/s
same,Classification (Caco-2 permeability/efflux),[9],High permeability (no efflux)
same,Mean A➔B Papp,[9],34.2 10^−6 cm/s
same,Mean B➔A Papp,[9],45.2 10^−6 cm/s
same,3T3-L1 cell viability vs untreated,[10],only slightly reduced
same,Relative intracellular 1-MNA level (of level in untreated adipocytes),"[3]; adipocytes, 10–60 µM, plateau",~ 40%
same,1-MNA levels in adipocytes relative to control,[3]; differentiated adipocytes,significantly decreased
same,Intracellular levels of 1-MNA vs untreated controls,[3]; differentiated adipocytes,significant reduction
same,Intracellular levels of 1-MNA vs untreated controls,[3]; pre-adipocytes,significant reduction
same,EC50,"[3]; read-out: EC50 (inhibition of NNMT, intracellular 1-MNA), fully differentiated adipocytes, 0.3–60 µM",2300 nM
same,Tolerability in dose escalation study,"[11]; DIO mice (n=2), total dose of 60 mg/kg/day",well tolerated with no observable adverse effects
same,Decrease in adipocyte size (EWAT histology) vs control DIO mice,[11]; [16],> 30%
same,Total cumulative food intake,[11]; [16],26.2 ± 1.4 g
same,Decrease in adipocyte volume vs control DIO mice,"[11]; DIO mice, 20 mg/kg SC three times daily, 11 days (data not shown)",> 40%
same,Plasma total cholesterol lower relative to control DIO mice,"[11]; DIO mice, 20 mg/kg SC three times daily, 11 days, 4 h fast",~ 30%
same,Inhibition of SIRT1,[12]; 10 nM – 300 µM,did not inhibit
same,SIRT1 activity,[12]; 600 µM,minor reduction
same,Intracellular NAD+ levels vs control,[13]; 10 µM,significant increase
same,Intracellular SAM levels vs control,[13]; 30 µM,significant increase
same,Intracellular levels of NA,[13]; 0.3–60 µM,no statistically significant main effect
same,Intracellular levels of SAH,[13]; 0.3–60 µM,no statistically significant main effect
same,Increase in NAD+ levels relative to control adipocytes,[13]; 1–60 µM,1.2–1.6 fold
same,IC50,"[14]; read-out: IC50, Nicotinamide phosphoribosyl transferase, concentrations above 100 µM could not be tested due to interference in the assay readout signal",> 100000 nM
same,Inhibition of NAMPT,[14]; up to a tested concentration of 100 µM,did not inhibit
same,Efflux Ratio (Re),[8]; Re=Papp (B→A)/Papp (A→B),1.33
same,Reduction of lipogenesis vs control untreated adipocytes,[15]; 30 µM,50%
same,Reduction of lipogenesis vs control untreated adipocytes,[15]; 60 µM,70%
C[n+]1cccc2c(N)c(F)ccc21 [5-amino-6-fluoro-1MQ],Inhibition of NAMPT,[14]; concentrations between 30 and 600 µM (data not shown),no inhibition
C[n+]1cccc2ccc(N)cc21 [7-amino-1MQ],IC50,[1],2600 nM
same,Permeability Classification,[2],High permeability
same,Flux,[2],2.055e-06 cm/s
same,Classification (Caco-2 permeability/efflux),[9],High permeability (no efflux)
same,Efflux Ratio (Re),[9],1.52
same,Mean A➔B Papp,[9],26.0 10^−6 cm/s
same,Mean B➔A Papp,[9],39.6 10^−6 cm/s
"c1ccc2ncccc2c1 [Quinoline, reference compound]",Permeability Classification,[2],High permeability
"Nc1ncnc2c1ncn2[C@@H]1O[C@H](CSCC[C@H](N)C(=O)O)[C@@H](O)[C@H]1O [SAH, reference compound]",IC50,"[4]; read-out: IC50, Protein arginine methyltransferase 3, NI: no inhibition, NC: not calculable",6600 ± 1200 nM

# From article PMC5826726 (Biochemical pharmacology, 2017)
